System: HT29 cells
Assay: LPS-induced IL-8 production by HT29 intestinal epithelial cells (ELISA)
Type: cell-based, human
Settings: compounds 50 mg/L to 5 μg/L for 18 h, then LPS (Salmonella enterica abortus equi) 1 μg/ml 6 h
Procedure: FIG. 2A. LPS-induced IL-8 production by HT29 cells in the absence or presence of the indicated concentrations of compound (c) 4, 5, 6, 7, 4′, 14.
The effect of the compounds on the release of IL-8 or KC was tested upon stimulation of intestinal epithelial cells (IEC) with LPS from Salmonella enterica abortus equi. The human IEC line HT29 was used for these experiments. Cells were cultured for 18 h in medium alone or in medium additioned with different concentrations of compounds 4, 5, 6, 7, 4′ and 14 (from 50 mg/L to 5 μg/L). Then, cells were stimulated for 6 h with LPS (1 μg/ml). […] Similar experiments were performed on a human pneumocyte type II cell line (A549) using compound 4 and LPS from Pseudomonas aeruginosa.

Compound | production of IL-8 induced by LPS
O=S(=O)(NCC[C@H]1O[C@H](CO)[C@@H](O)[C@H](O)[C@H]1O)c1cccc2ccccc12 [Compound 5] | significantly inhibited
CN(C)c1cccc2c(S(=O)(=O)NCC[C@H]3O[C@H](CO)[C@H](O)[C@H](O)[C@H]3O)cccc12 [4′, 5-(Dimethylamino)-N-[2′-(α-D-galactopyranosyl)ethyl]-1-naphthalenesulfonamide] | significantly inhibited
O=C(NCC[C@H]1O[C@H](CO)[C@@H](O)[C@H](O)[C@H]1O)c1cccc2ccccc12 [Compound 6, N-[2′-(α-D-Glucopyranosyl)ethyl]-1-naphtalenecarboxyamide] | significantly inhibited
CN(C)c1cccc2c(S(=O)(=O)NCCCC[C@H]3O[C@H](CO)[C@@H](O)[C@H](O)[C@H]3O)cccc12 [Compound 14, 5-(Dimethylamino)-N-[4′-(α-D-glucopyranosyl)butyl]-1-naphthalenesulfonamide] | significantly inhibited
CCCCN(CCCC)c1cccc2c(S(=O)(=O)NCC[C@H]3O[C@H](CO)[C@@H](O)[C@H](O)[C@H]3O)cccc12 [Compound 7, 5-(Dibutylamino)-N-[2′-(α-D-glucopyranosyl)ethyl]-1-naphthalenesulfonamide] | significantly inhibited
